{
  "source": "patent US20070004727A1",
  "about": "“Use of compounds for the prevention of drug-induced cell toxicity” (Reception ApS c/o Ostysk Innovation A/S, priority 2003, published 2007)",
  "tested_on": "uptake of gentamicin into the mouse kidneys",
  "test": "Gentamicin uptake in mouse kidneys following i.p. administration of the compound",
  "assay_type": "in vivo",
  "details": "for Effect of the inhibitors on the uptake of gentamicin into the mouse kidneys: 3 mg of inhibitor intraperitoneally in mice, as in Example 1 (FIG. 6), ranked among six inhibitors tested",
  "description": "The effect of a compound, 2-[4-(2-aminoethyl)piperazin-1-yl]ethylamine (Aldrich, D2,340-8, lot 06028BO-332), according to the invention was tested in vivo. Gentamicin uptake in mouse kidneys following intraperitoneal (i.p.) administration of the compound was measured.\nFor normal application of radioactive gentamicin the following was performed: I.p. injection of 50 micrograms per kg of tritiated gentamicin with or without 3 mg of the inhibitor per mouse.\nFor competition of clinical doses of gentamicin 50 micrograms/kg of tritiated gentamicin plus 5 mg/kg of cold gentamicin (clinical dose) were injected in admixture with 3 mg total of 2-[4-(2-aminoethyl)piperazin-1-yl]ethylamine per mouse. A control received gentamicin only.\nIn this experiment 3 mg of the inhibitors 3-methylamino-1-(4-methylpiperazino)-2-propanole, 4-piperazinoaniline, piperazin-2-one-HCl, 2-[4-(2-aminoethyl)piperazin-1-yl]ethylamine, piperazine anhydrous, and 0.5 mg of 1-(3-chlorophenyl)piperazine diHCl (m-CPP), respectively, were administered intraperitoneally in mice (see FIG. 6) as described in Example 1. The effect of the inhibitors on the uptake of gentamicin into the mouse kidneys was determined by means of the assay described in Example 1.",
  "data": [
    {"smiles": "NCCN1CCN(CCN)CC1", "note": "[2-[4-(2-aminoethyl)piperazin-1-yl]ethylamine]", "values": [
      {"measurement": "Effect of the inhibitors on the uptake of gentamicin into the mouse kidneys", "value": "strongest gentamicin inhibitors"},
      {"measurement": "Inhibition (of gentamicin uptake in mouse kidneys) compared to the control", "setting": "i.p., 50 micrograms/kg tritiated gentamicin plus 5 mg/kg cold gentamicin (clinical dose) in admixture with 3 mg total of compound per mouse, control received gentamicin only", "value": 40, "unit": "%"}
    ]},
    {"smiles": "Cl.O=C1CNCCN1", "note": "[piperazin-2-one-HCl]", "values": [
      {"measurement": "Effect of the inhibitors on the uptake of gentamicin into the mouse kidneys", "value": "strongest gentamicin inhibitors"}
    ]},
    {"smiles": "C1CNCCN1", "note": "[piperazine anhydrous]", "values": [
      {"measurement": "Effect of the inhibitors on the uptake of gentamicin into the mouse kidneys", "value": "strongest gentamicin inhibitors"}
    ]}
  ]
}
